Measurements published in PMC2639639, “Identification of Three Classes of Heteroaromatic Compounds with Activity against Intracellular Trypanosoma cruzi by Chemical Library Screening” (PLoS Neglected Tropical Diseases, 2009).
“Also recorded” adds a separate entry of the source. Like-named read-outs stand apart in the source and are kept apart here.

What was measured:
[1] = test system: T. cruzi (Tulahuen strain) expressing β-galactosidase; test: T. cruzi growth inhibition assay (β-gal activity, infection of NIH/3T3 cells); assay type: cell-based, Trypanosoma cruzi; conditions: Trypanosoma cruzi, TULAHUEN, NIH3T3, 96 h, 4 days
Description: NIH/3T3 cells and parasites were harvested, washed once and resuspended in DMEM supplemented with 2% FBS and Pen-Strep-Glut. […] Different numbers of NIH/3T3 cells were seeded in 96-well plates. After 3 h, compounds were added at the indicated concentrations and mixed by pipetting. BZN tablets (Rochagan, Roche) dissolved in DMSO and 4 µM Amphotericin B solution (Sigma-Aldrich) were used as positive controls. Different numbers of T. cruzi parasites were added in a final volume of 200 µl/well. After 4 days, 50 µl of PBS containing 0.5% of the detergent NP40 and 100 µM Chlorophenol Red-β-D-galactoside (CPRG) (Fluka) were added. Plates were incubated at 37°C for 4 h and absorbance was read at 590 nm using a Tecan Spectra Mini plate reader.
To calculate the Z′ factor, we used the formula described by Zhang et al.: Z′ = 1−[(3σc++3σc−) / |μc+−μc−|] where σc+ = standard deviation (SD) of positive control, σc− = SD of negative control, μc+ = mean of positive control, μc− = mean of negative control. Subsequently, the best ratio was used for all growth inhibition assays (50.000 cells and parasites, multiplicity of infection (MOI) 1∶1).
To determine IC50 values, β-gal activity (Abs590) was plotted against compound concentration for each compound. The IC50 was determined as the concentration at which the activity (absorbance) was half that in the absence of compound. Mean IC50 values are the average of independent experiments performed in triplicate on three different days.

NIH/3T3 cells = test: Cytotoxicity assay (Alamar Blue) on NIH/3T3 cells; assay type: cell-based; conditions: 4 days
Description: (§1) Cells (NIH/3T3 or HepG2) were washed and plated at a density of 50,000 cells/well of 96-well plates in 200 µl and allowed to adhere for 3 h. Twenty-four hour assays were done in DMEM without phenol red supplemented with 10% FBS and Pen-Strep-Glut, while 4-day assays were done in the same medium containing 2% FBS. Drugs were added and mixed. After 1 or 4 days, 20 µl of Alamar Blue (Biosource, Invitrogen) was added. Plates were incubated for 4 h (HepG2) or 6 h (NIH/3T3) at 37°C and fluorescence was read using a Labsystems Fluoroskan II plate reader (excitation: 544 nm, emission: 590 nm) .
(§2) To determine TC50 values, fluorescence was plotted against inhibitor concentration. TC50 was determined as the concentration at which cytotoxicity (fluorescence) was half that in the absence of inhibitor.

HepG2 cells = test: Cytotoxicity assay (Alamar Blue) on HepG2 cells; assay type: cell-based, human
Description: as §1, §2

[2] = test system: Free trypomastigotes (β-gal T. cruzi); test: T. cruzi lysis assay; assay type: cell-based; conditions: Trypanosoma cruzi; lysis assay, 100,000 parasites, 24 h
Description: Trypomastigotes were rinsed once and plated in 96-well plates at 100,000/well with the compounds in a final volume of 200 µl of DMEM without phenol red supplemented with 2% FBS, Pen-Strep-Glut and 100 µM CPRG. Plates were incubated for 24 h at 37°C and absorbance was read at 590 nm.

L. major = test: Leishmania growth inhibition assay in bone marrow-derived macrophages (L. major); assay type: cell-based; conditions: 5 days; for Reduction in parasite burden, L. major: 2 µM, added 2 h post-infection of macrophages; for IC50: Leishmania major, Macrophage, 120 h, macrophages, read-out: estimated IC50 against intracellular L. major
Description: (§3) Adherent bone marrow-derived macrophages were harvested in cold DMEM+0.5 mM EDTA and seeded into an 8-well Lab-Tek II chambered coverglass (Nalge Nunc International, Naperville, IL) at a concentration of 50,000 cells/chamber 24 h before being used for infections.
(§4) L. major and L. amazonensis parasites were opsonized for 30 min by incubation in DMEM containing 4% BALB/c serum and then allowed to invade macrophages in 200 µl DMEM supplemented with 10% FBS and Pen-Strep-Glut, at a MOI of 3 parasites per macrophage for 2 h at 33°C (5% CO2, 95% air humidity),[17]. Thereafter, non-phagocytosed parasites were washed off, and the cultures were further incubated in 300 µl of medium in the presence or the absence of drugs at the indicated concentration for 3 days for L. amazonensis and 5 days for L. major. Medium was changed and drugs were added again at the same concentration on day 2 post-infection. Intracellular parasites were assessed after staining with DAPI (3 µM) by fluorescence microscopy. The total number of amastigotes/500 macrophages was counted in each well. Kruskal-Wallis test was used to analyze the data, followed by a Dunn's post-comparison test.

L. amazonensis = test: Leishmania growth inhibition assay in bone marrow-derived macrophages (L. amazonensis); assay type: cell-based; conditions: 3 days; for Reduction in parasite burden, L. amazonensis: 2 µM, added 2 h post-infection of macrophages; for IC50: Leishmania amazonensis, Macrophage, 72 h, macrophages, read-out: estimated IC50 against intracellular L. amazonensis
Description: as §3, §4

[3] = test system: intracellularly growing T. cruzi amastigotes; test: Development assay with immunofluorescence (intracellular amastigotes, Tulahuen β-gal strain); assay type: cell-based, Trypanosoma cruzi; conditions: for Number of parasites per infected cell (intracellular replication) / Morphology of intracellularly growing T. cruzi: added after 2 h infection; for Number of parasites per infected cell (intracellular replication): 2 days; for Morphology of intracellularly growing T. cruzi: fixed after 2 or 3 days, PCH1 100 nM, NT1 400 nM, CX1 90 nM
Description: (§5) Fifty thousand NIH/3T3 cells were seeded on sterile glass coverslips in 12-well plates and allowed to adhere overnight. Five million parasites were added (MOI 100∶1) and allowed to infect for 2 h in DMEM+2% FBS and Pen-Strep-Glut. Parasites were rinsed out three times with PBS. Infected cells were further incubated and fixed for 15 min with 4% paraformaldehyde at the times indicated.
(§6) Fixed cells on coverslips were rinsed with PBS, permeabilized for 15 min in PBS with 0.1% Triton X-100 (Sigma-Aldrich). After blocking for 20 min in PBS with 10% goat serum, 1% bovine serum albumin, 100 mM glycine and 0.05% sodium azide, cells were incubated for 1 h at room temperature with a polyclonal rabbit anti-T. cruzi (gift from Dr B. Burleigh, Harvard School of Public Health, Boston, MA) at 1∶2000 dilution. After rinsing, an Alexa Fluor® 488 goat anti-rabbit IgG secondary antibody (Molecular Probes, Invitrogen) was added for 1 h at a 1∶800 dilution. DNA was stained with DAPI and coverslips were mounted on Mowiol. To determine the number of parasites per infected cell, between 200 and 300 infected cells per coverslip were scored in triplicate samples using an inverted Olympus IX70 microscope with a 60× oil objective. Data are presented as mean±standard deviation. Images were taken with the same microscope.

T. cruzi Y strain = test: Development assay with immunofluorescence (Y strain); assay type: cell-based, Trypanosoma cruzi; conditions: added after 2 h infection, 2 days
Description: as §5, §6

T. cruzi = conditions: cited from earlier work
mammalian cells = test: Cytotoxicity on mammalian cells (cell type not given); assay type: cell-based; conditions: type of mammalian cells and duration not specified at the place
Description: as §1, §2

Leishmania = test system: Leishmania; set-up: method as in PMID 15891135; conditions: read-out: IC50 (Leishmania positive control); cited from earlier work
[4] = β-gal T. cruzi Tulahuen, 50.000 NIH/3T3 cells and parasites (MOI 1:1), read-out: IC50 Intracellular growth

| SMILES | IC50 [1, 4] [nM] | TC50 NIH/3T3 cells at 4 days (NIH/3T3 cells) [nM] | TC50 HepG2 cells at 24 h (HepG2 cells) [nM] | TC50 HepG2 cells at 4 days (HepG2 cells) [nM] | IC50 [2] [nM] | Reduction in parasite burden, L. major (L. major) | IC50 (L. major) [nM] | Reduction in parasite burden, L. amazonensis (L. amazonensis) [%] | IC50 (L. amazonensis) [nM] | Phenotype of intracellular T. cruzi, compounds added 2 days after infection [3] | Number of parasites per infected cell (intracellular replication) [3] | Morphology of intracellularly growing T. cruzi [3] | Effect on intracellular T. cruzi Y strain (T. cruzi Y strain) | IC50 ([1]; β-gal T. cruzi Tulahuen in NIH/3T3 cells, read-out: IC50 T. cruzi growth inhibition) [nM] | IC50 (T. cruzi; read-out: IC50 against T. cruzi (reported)) [nM] | Toxicity (TC50) versus anti-trypanosomal activity (IC50) (mammalian cells) | IC50 (T. cruzi; read-out: IC50 against T. cruzi in vitro) [nM] | IC50 (Leishmania) [nM] |
| --- | --- | --- | --- | --- | --- | --- | --- | --- | --- | --- | --- | --- | --- | --- | --- | --- | --- | --- |
| O=C(NN=Cc1ccc(-c2cccc(Cl)c2Cl)o1)c1ccccn1 [PCH1, N′-{[5-(2,3-dichlorophenyl)-2-furyl]methylene}-2-pyridinecarbohydrazide] | 54 ± 10 | >300000 | >300000 | 66000 ± 7000 | 240000 ± 60000 | about 50% | ~2000 | 70 | ~100 | induced major defects in cell division at the IC100 and parasite lysis at higher doses | induced a growth arrest of intracellular T. cruzi | larger amastigotes containing multiple disorganized nuclei and kinetoplasts were observed | inhibit intracellular replication of T. cruzi Y strain | – | – | – | – | – |
| O=C(Cn1ccnc1[N+](=O)[O-])NCc1ccccc1 [BZN, benznidazole, reference compound] | – | – | – | – | – | – | – | – | – | – | – | – | – | 1150 | 1500 | – | – | – |
| Cc1cc(OCCCCCCn2ccnc2)cc(C)c1Cl [CX1, 1-[6-(4-chloro-3,5-dimethylphenoxy)hexyl]-1H-imidazole] | 23 ± 7 | 16000 ± 6000 | 57000 ± 8000 | 12000 ± 4000 | 13500 ± 1000 | ~70% | ~500 | 70 | ~500 | induced parasite lysis and host cell apoptosis in concentrations as low as 90 nM | – | displayed pycnotic nuclei (star) and debris of parasites protein and DNA throughout the cytoplasm | induced parasite lysis with morphological changes; also recorded: dose effect on the Y strain of T. cruzi was similar to the β-gal-expressing Tulahuen strain | – | – | over 500 fold | – | – |
| O=C(Cn1cnc([N+](=O)[O-])n1)Nc1cc(Oc2cccc(C(F)(F)F)c2)cc([N+](=O)[O-])c1 [NT1, 2-(3-nitro-1H-1,2,4-triazol-1-yl)-N-{3-nitro-5-[3-(trifluoromethyl)phenoxy]phenyl}acetamide] | 190 ± 40 | 14000 ± 6000 | 30000 ± 10000 | 7600 ± 300 | 6800 ± 900 | ~80% | ~500 | 50 | ~500 | had a trypanostatic effect | induced a growth arrest of intracellular T. cruzi | inhibited replication of parasites without altering their overall morphology | inhibit intracellular replication of T. cruzi Y strain; also recorded: displayed activity on the Y strain, but at higher concentrations | – | – | – | – | – |
| OC(Cn1cncn1)(Cn1cncn1)c1ccc(F)cc1F [Fluconazole, fluconazole] | – | – | – | – | – | – | – | – | – | – | – | – | – | – | – | – | 8000 | – |
| C[C@@H]1[C@H](O)[C@@H](C)/C=C/C=C/C=C/C=C/C=C/C=C/C=C/[C@H](O[C@@H]2O[C@H](C)[C@@H](O)[C@H](N)[C@@H]2O)C[C@@H]2O[C@](O)(C[C@@H](O)C[C@@H](O)[C@H](O)CC[C@@H](O)C[C@@H](O)CC(=O)O[C@H]1C)C[C@H](O)[C@H]2C(=O)O [Amphotericin B] | – | – | – | – | – | – | – | – | – | – | – | – | – | – | – | – | – | 100 |
